Laboratory results reported in US12568982B2, “Systems for retaining potency in an infused beverage” (Vertosa Inc., priority 2020, dated 2026).

Tests used:
Type in all cases: physicochemical
[1] = Terpene oxidation with ascorbic acid or EDTA at 40° C.
From the text: However, nearly all terpenes can be oxidized and some can oxidize faster than others. When terpenes are put into a ready-to-drink beverage, the chemical degradation that can be caused by oxidation needs to be considered. When the oxidation happens, it not only diminishes the designed effect of the product, but it also creates unknown by-products that can be potentially harmful to consume. Oxidation rate of α-pinene and limonene was compared with the addition of ascorbic acid and EDTA.

[2] = Water-soluble antioxidant standard protocol, THC potency decay at 40° C.; details: for THC potency loss at 10 weeks with combined antioxidants: Polysorbate Emulsion 1
Protocol: The study was done with standard protocol: 20 mg THC nanoemulsion was diluted in 12 oz purified water into an amber glass bottle which was finished with a crown cap. The nanoemulsion was produced using polysorbate as an emulsifier with 50 nm droplet size (See Emulsion 1 from Table 3). The pH of the solution was adjusted to 4.0. The water-soluble antioxidants were added into the final solution at 0.005% (50 ppm).
All the testing above was based on the THC nanoemulsion made with polysorbate as an emulsifier (see Emulsion 1 from Table 3). Two other THC emulsions were produced with polyglycerol and Q-Naturale (see Emulsion 3 and 4 from […]).
The three oil soluble antioxidants were all targeted at 0.01% (100 ppm).

[3] = Oil-phased versus water-phased antioxidants, THC potency loss at 40° C.; details: polysorbate emulsion, antioxidant 0.01%, glass bottle with crown cap
From the text: There are two major types of antioxidants depending on their solubility: oil-phased antioxidants and water-phased antioxidants. The oil-phased antioxidants usually exist within the emulsion droplet and water-phased antioxidants are usually added during beverage production. It was believed that both types of antioxidants should work since they follow similar mechanisms: both function as a sacrificial agent to be oxidized prior to oxidation of the API, or they function as chelating agents where they scavenge the metal ions that catalyze oxidation. […] An emulsion was produced using polysorbate, shown as Emulsion 1 in Table 3. The antioxidant concentration was targeted at 0.01%.

[4] = Contact angle of liquids on aluminum can liner (hydrophobicity study); details: Krüss contact angle machine; flattened liner side of aluminum can
Protocol: For hydrophobicity studies, a Krüss contact angle machine was used. An aluminum can was cut in half, and the flattened liner side was used as the testing surface. The contact angle of water, coconut oil, coconut oil+THC at different ratios, and coconut oil+CBD at different ratios on the liner was measured.

[5] = THC potency loss in glass bottle with child-resistant cap at room temperature
From the text: The concentration of the antioxidant was studied to ensure the antioxidant will last long enough to protect against THC degradation.

[6] = 20 mg THC polysorbate nanoemulsion in 12 oz water, pH 4.0, amber glass, 40° C., antioxidant 0.005% (50 ppm)
[7] = oil-soluble antioxidant at 100 ppm + 10 ppm EDTA
[8] = oil-soluble antioxidant at 100 ppm + 50 ppm Ascorbic Acid

C=CC(=C)CCC=C(C)C [myrcene]
2-weeks potency loss at 40° C. ([1]; 10 ppm EDTA): 6% | 2-weeks potency loss at 40° C. ([1]; 50 ppm ascorbic acid): 3% | 2-weeks potency loss at 40° C. ([1]; No antioxidant): 38%

O=C(O)c1cc(O)c(O)c(O)c1 [Gallic acid]
THC loss at 4 weeks [2, 6]: 10% | THC loss at 10 weeks [2, 6]: 27%

tocopherol [Vitamin E (tocopherol)]
THC loss at 4 weeks [3]: 25% | THC loss at 10 weeks [3]: 46% | THC potency loss at 10 weeks with combined antioxidants [2, 7]: 7% | THC potency loss at 10 weeks with combined antioxidants [2, 8]: 6%

O [Water]
Contact Angle on Liner [4]: 85°

O=C1O[C@H]([C@@H](O)CO)C(O)=C1O [Ascorbic Acid, ascorbic acid]
THC potency loss % ([5]; Ascorbic acid 20 ppm, 6 months at room temperature): 21% | THC potency loss % ([5]; Ascorbic acid 20 ppm, 12 months at room temperature): 35% | THC potency loss % ([5]; Ascorbic acid 50 ppm, 6 months at room temperature): 7% | THC potency loss % ([5]; Ascorbic acid 50 ppm, 12 months at room temperature): 10% | THC potency loss % ([5]; Ascorbic acid 200 ppm, 6 months at room temperature): 3% | THC potency loss % ([5]; Ascorbic acid 200 ppm, 12 months at room temperature): 7% | THC loss at 10 weeks [3]: 17%

CCCOC(=O)c1cc(O)c(O)c(O)c1 [Propyl Gallate, propyl gallate]
THC potency loss at 10 weeks with combined antioxidants [2, 7]: 6% | THC potency loss at 10 weeks with combined antioxidants [2, 8]: 7%

O=C(O)CN(CCN(CC(=O)O)CC(=O)O)CC(=O)O [EDTA, Ethylenediaminetetraacetic acid]
THC potency loss % ([5]; EDTA 5 ppm, 6 months at room temperature): 16% | THC potency loss % ([5]; EDTA 5 ppm, 12 months at room temperature): 39% | THC potency loss % ([5]; EDTA 10 ppm, 6 months at room temperature): 8% | THC potency loss % ([5]; EDTA 10 ppm, 12 months at room temperature): 12% | THC potency loss % ([5]; EDTA 20 ppm, 6 months at room temperature): 6% | THC potency loss % ([5]; EDTA 20 ppm, 12 months at room temperature): 9%

C=CC(C)(O)CCC=C(C)C (stereo not drawn) [linalool]
2-weeks potency loss at 40° C. ([1]; 10 ppm EDTA): 9% | 2-weeks potency loss at 40° C. ([1]; 50 ppm ascorbic acid): 6% | 2-weeks potency loss at 40° C. ([1]; No antioxidant): 46%

CCCCCc1cc(O)c2c(c1)OC(C)(C)[C@@H]1CCC(C)=C[C@@H]21 [THC, Tetrahydrocannabinol]
THC potency loss % ([5]; No antioxidant, 6 months at room temperature, child resistant cap type 1): 56% | THC potency loss % ([5]; No antioxidant, 12 months at room temperature, child resistant cap type 1): 78%

C=C(C)[C@H]1CC=C(C)CC1 [limonene]
2-weeks potency loss at 40° C. ([1]; 10 ppm EDTA): 8% | 2-weeks potency loss at 40° C. ([1]; 50 ppm ascorbic acid): 7% | 2-weeks potency loss at 40° C. ([1]; No antioxidant): 68%

CC1=CCC2CC1C2(C)C (stereo not drawn) [α-pinene]
2-weeks potency loss at 40° C. ([1]; 10 ppm EDTA): 6% | 2-weeks potency loss at 40° C. ([1]; 50 ppm ascorbic acid): 4% | 2-weeks potency loss at 40° C. ([1]; No antioxidant): 57%
